PubChem BioAssay (NCI)
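The compound was tested at five concentrations on cells cultured in 96-well plates, with a 48-hour exposure period. GI50 = concentration required for 50% inhibition of growth. The concentration for full growth arrest is given as TGI.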

Legend:
Assay in all cases: NCI tumour cell line growth inhibition, 48 h
OVCAR-3 ovarian = system: OVCAR-3 ovarian
CCRF-CEM leukemia = system: CCRF-CEM leukemia
HCT-15 colon = system: HCT-15 colon
K-562 leukemia = system: K-562 leukemia
RPMI-8226 leukemia = system: RPMI-8226 leukemia
SNB-19 CNS = system: SNB-19 CNS
UACC-257 melanoma = system: UACC-257 melanoma
BT-549 breast = system: BT-549 breast
A498 renal = system: A498 renal
SF-295 CNS = system: SF-295 CNS
DU-145 prostate = system: DU-145 prostate
MALME-3M melanoma = system: MALME-3M melanoma
U251 CNS = system: U251 CNS
CAKI-1 renal = system: CAKI-1 renal
UACC-62 melanoma = system: UACC-62 melanoma
ACHN renal = system: ACHN renal
786-0 renal = system: 786-0 renal
LOX IMVI melanoma = system: LOX IMVI melanoma
COLO 205 colon = system: COLO 205 colon
IGROV1 ovarian = system: IGROV1 ovarian
HCT-116 colon = system: HCT-116 colon
SK-MEL-2 melanoma = system: SK-MEL-2 melanoma
SW-620 colon = system: SW-620 colon
M14 melanoma = system: M14 melanoma
SK-MEL-28 melanoma = system: SK-MEL-28 melanoma
RXF 393 renal = system: RXF 393 renal
MCF7 breast = system: MCF7 breast
MDA-MB-231 breast = system: MDA-MB-231 breast
HOP-92 NSCLC = system: HOP-92 NSCLC
NCI-H460 lung = system: NCI-H460 lung
OVCAR-8 ovarian = system: OVCAR-8 ovarian
EKVX NSCLC = system: EKVX NSCLC
SNB-75 CNS = system: SNB-75 CNS
HS 578T breast = system: HS 578T breast
TK-10 renal = system: TK-10 renal
OVCAR-4 ovarian = system: OVCAR-4 ovarian
HT29 colon = system: HT29 colon
MOLT-4 leukemia = system: MOLT-4 leukemia
SF-268 CNS = system: SF-268 CNS
MDA-MB-435 = system: MDA-MB-435
SK-OV-3 ovarian = system: SK-OV-3 ovarian
OVCAR-5 ovarian = system: OVCAR-5 ovarian
SK-MEL-5 melanoma = system: SK-MEL-5 melanoma
NCI-H23 lung = system: NCI-H23 lung
T-47D breast = system: T-47D breast
HCC-2998 colon = system: HCC-2998 colon
SF-539 CNS = system: SF-539 CNS
SN12C renal = system: SN12C renal
NCI-H522 lung = system: NCI-H522 lung
PC-3 prostate = system: PC-3 prostate
NCI/ADR-RES ovarian = system: NCI/ADR-RES ovarian
NCI-H226 lung = system: NCI-H226 lung
HL-60(TB) leukemia = system: HL-60(TB) leukemia
A549 NSCLC = system: A549 NSCLC
HOP-62 NSCLC = system: HOP-62 NSCLC
KM12 colon = system: KM12 colon
SR leukemia = system: SR leukemia
UO-31 renal = system: UO-31 renal

O=C(CC12CC3CC(CC(C3)C1)C2)NCCOCCOCCNC(=O)c1cc2c(o1)C(=O)c1ccccc1C2=O
GI50 (OVCAR-3 ovarian): 0.243 µM | TGI (OVCAR-3 ovarian): 0.72 µM | GI50 (CCRF-CEM leukemia): 2.27 µM | TGI (CCRF-CEM leukemia): 13.1 µM | GI50 (HCT-15 colon): 0.867 µM | TGI (HCT-15 colon): 2.39 µM | GI50 (K-562 leukemia): 1.33 µM | TGI (K-562 leukemia): 4.9 µM | GI50 (RPMI-8226 leukemia): 1.56 µM | TGI (RPMI-8226 leukemia): 4.43 µM | GI50 (SNB-19 CNS): 0.841 µM | TGI (SNB-19 CNS): 3.11 µM | GI50 (UACC-257 melanoma): 1.14 µM | TGI (UACC-257 melanoma): 2.43 µM | GI50 (BT-549 breast): 1.23 µM | TGI (BT-549 breast): 2.51 µM | GI50 (A498 renal): 1.6 µM | TGI (A498 renal): 3.16 µM | GI50 (SF-295 CNS): 0.663 µM | TGI (SF-295 CNS): 1.94 µM | GI50 (DU-145 prostate): 0.225 µM | TGI (DU-145 prostate): 0.457 µM | GI50 (MALME-3M melanoma): 0.134 µM | TGI (MALME-3M melanoma): 0.264 µM | GI50 (U251 CNS): 1.37 µM | TGI (U251 CNS): 2.81 µM | GI50 (CAKI-1 renal): 1.46 µM | TGI (CAKI-1 renal): 3.86 µM | GI50 (UACC-62 melanoma): 0.271 µM | TGI (UACC-62 melanoma): 0.748 µM | GI50 (ACHN renal): 1.35 µM | TGI (ACHN renal): 2.72 µM | GI50 (786-0 renal): 2.05 µM | TGI (786-0 renal): 4.7 µM | GI50 (LOX IMVI melanoma): 0.526 µM | TGI (LOX IMVI melanoma): 2.03 µM | GI50 (COLO 205 colon): 1.28 µM | TGI (COLO 205 colon): 2.76 µM | GI50 (IGROV1 ovarian): 1.41 µM | TGI (IGROV1 ovarian): 3.21 µM | GI50 (HCT-116 colon): 1.58 µM | TGI (HCT-116 colon): 4.96 µM | GI50 (SK-MEL-2 melanoma): 1.6 µM | TGI (SK-MEL-2 melanoma): 3.86 µM | GI50 (SW-620 colon): 1.21 µM | TGI (SW-620 colon): 2.87 µM | GI50 (M14 melanoma): 0.211 µM | TGI (M14 melanoma): 0.462 µM | GI50 (SK-MEL-28 melanoma): 1.58 µM | TGI (SK-MEL-28 melanoma): 3.09 µM | GI50 (RXF 393 renal): 1.34 µM | TGI (RXF 393 renal): 2.65 µM | GI50 (MCF7 breast): 0.54 µM | TGI (MCF7 breast): 2.38 µM | GI50 (MDA-MB-231 breast): 1.53 µM | TGI (MDA-MB-231 breast): 5.68 µM | GI50 (HOP-92 NSCLC): 2.26 µM | TGI (HOP-92 NSCLC): 6.1 µM | GI50 (NCI-H460 lung): 0.317 µM | TGI (NCI-H460 lung): 1 µM | GI50 (OVCAR-8 ovarian): 0.813 µM | TGI (OVCAR-8 ovarian): 11.6 µM | GI50 (EKVX NSCLC): 1.84 µM | TGI (EKVX NSCLC): 3.53 µM | GI50 (SNB-75 CNS): 1.56 µM | TGI (SNB-75 CNS): 2.9 µM | GI50 (HS 578T breast): 1.43 µM | TGI (HS 578T breast): 5.18 µM | GI50 (TK-10 renal): 3.06 µM | TGI (TK-10 renal): 5.27 µM | GI50 (OVCAR-4 ovarian): 0.839 µM | TGI (OVCAR-4 ovarian): 2.08 µM | GI50 (HT29 colon): 2.38 µM | TGI (HT29 colon): 5.85 µM | GI50 (MOLT-4 leukemia): 1.97 µM | TGI (MOLT-4 leukemia): 4.98 µM | GI50 (SF-268 CNS): 1.68 µM | TGI (SF-268 CNS): 3.9 µM | GI50 (MDA-MB-435): 0.185 µM | TGI (MDA-MB-435): 0.343 µM | GI50 (SK-OV-3 ovarian): 2.19 µM | TGI (SK-OV-3 ovarian): 4.71 µM | GI50 (OVCAR-5 ovarian): 1.69 µM | TGI (OVCAR-5 ovarian): 3.09 µM | GI50 (SK-MEL-5 melanoma): 0.176 µM | TGI (SK-MEL-5 melanoma): 0.328 µM | GI50 (NCI-H23 lung): 0.133 µM | TGI (NCI-H23 lung): 0.469 µM | GI50 (T-47D breast): 1.8 µM | TGI (T-47D breast): 5.06 µM | GI50 (HCC-2998 colon): 1.78 µM | TGI (HCC-2998 colon): 3.39 µM | GI50 (SF-539 CNS): 1.14 µM | TGI (SF-539 CNS): 2.37 µM | GI50 (SN12C renal): 0.595 µM | TGI (SN12C renal): 1.87 µM | GI50 (NCI-H522 lung): 1.34 µM | TGI (NCI-H522 lung): 3.04 µM | GI50 (PC-3 prostate): 1.38 µM | TGI (PC-3 prostate): 9.21 µM | GI50 (NCI/ADR-RES ovarian): 2.07 µM | TGI (NCI/ADR-RES ovarian): 5.87 µM | GI50 (NCI-H226 lung): 1.65 µM | TGI (NCI-H226 lung): 3.94 µM | GI50 (HL-60(TB) leukemia): 1.22 µM | TGI (HL-60(TB) leukemia): 4.61 µM | GI50 (A549 NSCLC): 0.22 µM | TGI (A549 NSCLC): 0.51 µM | GI50 (HOP-62 NSCLC): 1.52 µM | TGI (HOP-62 NSCLC): 2.86 µM | GI50 (KM12 colon): 1.58 µM | TGI (KM12 colon): 5.13 µM | GI50 (SR leukemia): 1.08 µM | TGI (SR leukemia): 6.55 µM | GI50 (UO-31 renal): 1.5 µM | TGI (UO-31 renal): 3.09 µM
